≈ marks a conversion by molar mass, not a printed value.
What was measured:
[1] = test system: Proteus vulgaris; conditions: NCIM 2813
[2] = test system: Klebsiella pneumoniae; conditions: NCIM 5082
[3] = test system: Staphylococcus aureus; conditions: NCIM 2120
[4] = test system: Escherichia coli; conditions: NCIM 2065
[5] = test system: Bacillus subtilis; conditions: NCIM 2546
[6] = test system: Bacillus subtilis; assay: Antibacterial activity against Bacillus subtilis NCIM 2546 after 24 hrs by disc diffusion method; type: functional; conditions: for MIC: Bacillus subtilis, NCIM 2546, 24 h
[7] = test system: THP-1; assay: Antiinflammatory activity in human THP1 cells assessed as inhibition of LPS-induced TNFalpha production at 10 uM treated 30 mins before LPS challenge measured after 24 hrs by ELISA relative to control; type: functional
[8] = test system: Candida albicans; assay: Antifungal activity against Candida albicans NCIM 3100 after 72 hrs by disc diffusion method; type: functional; conditions: for MIC: Candida albicans, NCIM 3100, 72 h
[9] = test system: THP-1; assay: Antiinflammatory activity in human THP1 cells assessed as inhibition of LPS-induced IL-6 production at 10 uM treated 30 mins before LPS challenge measured after 24 hrs by ELISA relative to control; type: functional
[10] = test system: Aspergillus fumigatus; assay: Antifungal activity against Aspergillus fumigatus NCIM 902 after 72 hrs by disc diffusion method; type: functional; conditions: for MIC: Aspergillus fumigatus, NCIM 902, 72 h
[11] = test system: Aspergillus niger; assay: Antifungal activity against Aspergillus niger NCIM 545 after 72 hrs by disc diffusion method; type: functional; conditions: for MIC: Aspergillus niger, NCIM 545, 72 h
[12] = test system: Trichoderma viride; assay: Antifungal activity against Trichoderma viride TT after 72 hrs by disc diffusion method; type: functional; conditions: for MIC: Trichoderma viride, TT, 72 h
[13] = Cytotoxicity against human THP-1 cells at 10 uM; conditions: THP-1, 10 µM
[14] = test system: Escherichia coli; assay: Antibacterial activity against Escherichia coli NCIM 2065 after 24 hrs by disc diffusion method; type: functional; conditions: for MIC: Escherichia coli, NCIM 2065, 24 h
[15] = test system: Klebsiella pneumoniae; assay: Antibacterial activity against Klebsiella pneumoniae NCIM 5082 after 24 hrs by disc diffusion method; type: functional; conditions: for MIC: Klebsiella pneumoniae, NCIM 5082, 24 h
[16] = test system: Proteus vulgaris; assay: Antibacterial activity against Proteus vulgaris NCIM 2813 after 24 hrs by disc diffusion method; type: functional; conditions: for MIC: Proteus vulgaris, NCIM 2813, 24 h
[17] = test system: Staphylococcus aureus; assay: Antibacterial activity against Staphylococcus aureus NCIM 2120 after 24 hrs by disc diffusion method; type: functional; conditions: for MIC: Staphylococcus aureus, NCIM 2120, 24 h
[18] = test system: Bacillus subtilis; assay: Antibacterial activity against Bacillus subtilis after 24 hrs by disc diffusion method
[19] = test system: Penicillium chrysogenum; assay: Antifungal activity against Penicillium chrysogenum NCIM 707 after 72 hrs by disc diffusion method; type: functional; conditions: for MIC: Penicillium chrysogenum, NCIM 707, 72 h

Compound	inhibition zone (IZ) [6] [mm]	MIC [6] [µg/mL]	inhibition at 10 µM [7] [%]	inhibition zone (IZ) [8] [mm]	MIC [8] [µg/mL]	inhibition at 10 µM [9] [%]	inhibition zone (IZ) [10] [mm]	MIC [10] [µg/mL]	inhibition zone (IZ) [11] [mm]	MIC [11] [µg/mL]	inhibition zone (IZ) [12] [mm]	MIC [12] [µg/mL]	Activity [13] [%]	MIC [14] [µg/mL]	MIC [15] [µg/mL]	inhibition zone (IZ) [16] [mm]	MIC [16] [µg/mL]	MIC [17] [µg/mL]	inhibition zone (IZ) [19] [mm]	MIC [19] [µg/mL]	further results
GENTAMICIN	–	–	–	–	–	–	–	–	–	–	–	–	–	–	–	–	–	–	–	–	IZ [1]: 24 mm; MIC [1]: 25 µg/mL; IZ [2]: 24 mm; MIC [2]: 25 µg/mL; MIC [3]: 25 µg/mL; MIC [4]: 25 µg/mL; IZ [5]: 21 mm; MIC [5]: 25 µg/mL
CCCCN(CCCC)CC1(CN(CCCC)CCCC)Oc2cc(OC)cc(OC)c2C1=O	21	25 (≈ 52.4 µM)	17	17	25 (≈ 52.4 µM)	37	22	25 (≈ 52.4 µM)	26	25 (≈ 52.4 µM)	16	25 (≈ 52.4 µM)	65	25 (≈ 52.4 µM)	25 (≈ 52.4 µM)	22	25 (≈ 52.4 µM)	25 (≈ 52.4 µM)	24	25 (≈ 52.4 µM)	inhibition zone (IZ) [15]: 21 mm; inhibition zone (IZ) [17]: 18 mm; inhibition zone (IZ) [18]: 18 mm
CCN(C)CC1(CN(C)CC)Oc2cc(OC)cc(OC)c2C1=O	–	> 100	–	–	> 100	–	14	50 (≈ 149 µM)	–	> 100	–	> 100	–	> 100	> 100	–	> 100	> 100	15	50 (≈ 149 µM)	–
COc1cc(OC)c2c(c1)OC(CN1CCOCC1)(CN1CCOCC1)C2=O	16	25 (≈ 63.7 µM)	89	15	50 (≈ 127 µM)	100	18	25 (≈ 63.7 µM)	24	25 (≈ 63.7 µM)	15	25 (≈ 63.7 µM)	66	25 (≈ 63.7 µM)	> 100	22	25 (≈ 63.7 µM)	50 (≈ 127 µM)	23	25 (≈ 63.7 µM)	inhibition zone (IZ) [14]: 16 mm; inhibition zone (IZ) [17]: 15 mm
COc1cc(OC)c2c(c1)OC(CN1CCCC1)(CN1CCCC1)C2=O	20	25 (≈ 69.4 µM)	100	14	50 (≈ 139 µM)	100	22	25 (≈ 69.4 µM)	21	25 (≈ 69.4 µM)	15	50 (≈ 139 µM)	83	25 (≈ 69.4 µM)	25 (≈ 69.4 µM)	22	25 (≈ 69.4 µM)	25 (≈ 69.4 µM)	16	25 (≈ 69.4 µM)	inhibition zone (IZ) [15]: 20 mm; inhibition zone (IZ) [17]: 15 mm; inhibition zone (IZ) [18]: 18 mm
CCN(CC)CC1(CN(CC)CC)Oc2cc(OC)cc(OC)c2C1=O	18	25 (≈ 68.6 µM)	28	16	25 (≈ 68.6 µM)	74	17	25 (≈ 68.6 µM)	17	25 (≈ 68.6 µM)	16	25 (≈ 68.6 µM)	37	25 (≈ 68.6 µM)	25 (≈ 68.6 µM)	17	25 (≈ 68.6 µM)	25 (≈ 68.6 µM)	15	50 (≈ 137 µM)	inhibition zone (IZ) [15]: 17 mm; inhibition zone (IZ) [17]: 16 mm; inhibition zone (IZ) [18]: 17 mm

Source: ChEMBL document CHEMBL1177886, “Synthesis and biological evaluation of a novel series of 2,2-bisaminomethylated aurone analogues as anti-inflammatory and antimicrobial agents” (Eur J Med Chem, 2010)
